Data reported in article PMC10814725, “In Vitro Anti-Inflammatory Study of Limonoids Isolated from Chisocheton Plants” (Current Issues in Molecular Biology, 2024).
Like-named read-outs stand apart in the source and are kept apart here.

Tests used:
[1] = Cell viability by CCK-8, HEK-Blue hTLR4 cells; assay type: cell-based; conditions: human
Description: (§1) The viability of HEK-Blue^TM hTLR4, […], and THP-1 cells was evaluated using the Dojindo Cell Counting Kit-8 (CCK-8) according to the manufacturer’s instructions. The viability of HEK-Blue^TM hTLR4 and THP-1 cells was assessed under identical conditions to the corresponding assay treatments. HEK-Blue^TM hTLR4 cells (2 × 10^4 cells/well) were seeded in 96-well plates and serum-starved for 24 h at 37 °C in a 5% CO2 atmosphere. After incubation, the culture medium was aspirated, and the cells were washed with saline. High-glucose D-MEM supplemented with 0.1% FBS and 1% penicillin–streptomycin was added and pretreated with or without the 17 limonoids at a concentration of 20 µM for 1 h, followed by LPS addition at a concentration of 10 ng/mL. After 18 h of incubation, a 10% (v/v) CCK-8 solution was added to each well and incubated at 37 °C for 1 h, and cell viability was calculated.

TNF-α = experiment: ELISA of TNF-α production in LPS-stimulated THP-1 cells; assay type: cell-based, human; conditions: for IC50: Homo sapiens, THP-1, 18 h, read-out: TNF-α IC50; for TNF-α SI (selectivity index, CC50/IC50): THP-1 CC50 / TNF-α IC50
in vitro = assay type: cell-based; conditions: mouse
Description: as §1

[2] = Cell viability by CCK-8, THP-1 cells; assay type: cell-based; conditions: human, PMA-differentiated THP-1 cells; for CC50 at 18 h: concentration causing 50% cytotoxicity against THP-1 cells
Description: as §1
The THP-1 cells at 5 × 10^4 cells/well were differentiated for 24 h in the presence of PMA (0.5 μM solution in medium). After 24 h of incubation, the culture medium was removed from the 96-well plate and the cells were washed with PBS. Fresh RPMI-1640 medium supplemented with 0.1% FBS and 1% penicillin–streptomycin was added to each well and incubated at 37 °C for overnight. The cells were pretreated with 17 limonoids at the corresponding concentration for 1 h followed by the addition of LPS (10 ng/mL) and incubated at 37 °C for 18 h. Furthermore, CCK-8 solution was added to each well with a final concentration was 10% (v/v) and incubated at 37 °C. After 1 h, the absorbance of each well was measured at […] by using a microplate reader (BioTek Cytation 5 Cell Imaging Multimode Reader). Cell viability was calculated using the following formula: % Cell viability=(Absorbance of sample−Absorbance of Background)/(Absorbance of control−Absorbance of Background)×100 where the absorbance of the sample is the absorbance of cells treated by the compound with or without LPS, the absorbance of the control is the absorbance of LPS (−)-treated cells, and the background absorbance is the absorbance of a well containing only the medium. The results were expressed as 100% cell viability.

phosphorylated-p38 MAPK = experiment: Western blotting of phosphorylated-p38 MAPK in LPS-stimulated THP-1 cells; assay type: cell-based, human; conditions: 10 µM, LPS 10 ng/mL, 18 h, compared to LPS (+) group
Description: THP-1 cells were seeded at a density of 1 × 10^6 cells/well in 24-well plates. The cells were then pretreated with a concentration of 10 µM of compounds 3, 5, 9, or 15 for 1 h. Subsequently, LPS (10 ng/mL) was added to the cells, which were incubated for 18 h. The protein concentrations were determined using a bicinchoninic acid (BCA) assay kit.
For Western blot analysis, proteins were separated by SDS-PAGE and transferred onto a polyvinylidene fluoride (PVDF) membrane. The membranes were blocked with 2.5% BSA in Tris-buffered saline-Tween (TBST) for 1 h at room temperature. After three washes with TBST, the membranes were incubated with a diluted primary antibody solution (anti-phosphorylated-p38 MAPK or anti-p38 MAPK) at a 1:1000 dilution for 1 h at room temperature. After three washes with TBS-T, the membranes were incubated with a secondary antibody conjugated to horseradish peroxidase (HRP; 1:4000 dilution) for 30 min at room temperature and subsequently detected by chemiluminescence. Finally, the bands were visualized and quantified using an ImageQuant 800 GxP system (Cytiva, MA, USA). The results were expressed as ratios relative to the reference protein β-actin.

[3] = tested on: TNF-α, IL-6, IL-1β, and MCP-1; experiment: ELISA of pro-inflammatory markers overall (TNF-α, IL-6, IL-1β, MCP-1) in LPS-stimulated THP-1 cells; assay type: cell-based; conditions: Homo sapiens, read-out: Overall IC50 values for the evaluated pro-inflammatory markers
Description: (§2) The logarithmic growth phase of THP-1 cells was achieved by seeding in 96-well plates at a density of 5 × 10^4 cells/well and differentiated for 24 h in the presence of PMA (0.5 μM solution in medium). After 24 h of incubation, the culture medium was removed from the 96-well plate and the cells were washed with PBS. Fresh RPMI-1640 medium supplemented with 0.1% FBS and 1% Penicillin–Streptomycin was added to each well and incubated at 37 °C overnight. The cells were pretreated with 17 limonoids at the corresponding concentration for 1 h, followed by the addition of LPS (10 ng/mL) and then incubation at 37 °C for 18 h. Finally, 50 μL of each culture supernatant solution was taken to determine the concentrations of IL-6, MCP-1, and IL-1β using the corresponding commercially available human ELISA kits following the manufacturer’s instructions. The analyte concentration in the supernatant was measured in pg/mL, and the inhibition level was expressed as a fold change compared to the LPS (−) control group. To determine the IC50 value, the dose-response data were normalized to the LPS-stimulated-only group, and the percentage of inhibition was calculated using the following formula: % Inhibition=(Absorbance of LPS+ control−Absorbance of compound treatment with LPS)/(Absorbance of LPS+ control−Absorbance of LPS− control)×100
(§3) Furthermore, the % inhibition data were interpolated into linear equations to determine the IC50 values.

IL-6 = experiment: ELISA of IL-6 production in LPS-stimulated THP-1 cells; assay type: cell-based, human; conditions: for IC50: Homo sapiens, THP-1, 18 h, LPS-stimulated (10 ng/mL) THP-1 cells, 1, 5, 10, 20 µM, 18 h; for IL-6 SI (selectivity index, CC50/IC50): THP-1 CC50 / IL-6 IC50
Description: as §2, with “Fresh RPMI-1640 medium supplemented with 0.1% FBS and 1% Penicillin–Streptomycin was added to each well and incubated at 37 °C overnight.” left out
as §3

[4] = tested on: TLR4-dependent NF-kB activation in HEK-Blue hTLR4 cells; experiment: SEAP reporter gene assay, antagonist effect on LPS-stimulated TLR4-dependent NF-κB activation; assay type: cell-based, human; conditions: 20 µM, LPS 10 ng/mL, 18 h, vs. LPS stimulated-only group
Description: The SEAP Reporter Gene Assay was conducted as previously described. HEK-Blue^TM hTLR4 cells (2 × 10^4 cells/well) were seeded in 96-well plates and were serum-starved for 24 h at 37 °C in a 5% carbon dioxide atmosphere. After incubation, the culture medium was aspirated, and the cells were washed with saline. High-glucose D-MEM supplemented with 0.1% FBS and 1% penicillin-streptomycin was added and treated with or without the 17 limonoids at a concentration of 20 µM for 1 h, followed by LPS addition at a concentration of 10 ng/mL for the LPS-stimulated group. After incubation at 37 °C for 18 h, the supernatants were collected and PNPP in PBS solution (0.8 mM, 100 μL) was added, followed by 4 h of shading at 25 °C. The optical density (OD) of the samples was measured at 405 nm using a microplate reader (BioTek Cytation 5 Cell Imaging Multimode Reader, Agilent Technologies, Santa Clara, CA, USA).

[5] = Viability Cell (%) HEK-Blue hTLR4 LPS-Induced (10 ng/mL)
[6] = Viability Cell (%) HEK-Blue hTLR4 Without LPS
[7] = LPS-stimulated (10 ng/mL) THP-1 cells, 1, 5, 10, 20 µM, 18 h
[8] = LPS 10 ng/mL, read-out: Viability Cell (%) THP-1 LPS-Induced (10 ng/mL)
[9] = without LPS, read-out: Viability Cell (%) THP-1 Without LPS

| Structure (SMILES) | viability at 18 h, 20 µM [1, 5] [%] | viability at 18 h, 20 µM [1, 6] [%] | IC50 (TNF-α; [7]) [µM] | TNF-α SI (selectivity index, CC50/IC50) (TNF-α) | viability at 5 µM (in vitro) [%] | viability at 10 µM (in vitro) [%] | viability at 20 µM (in vitro) [%] | viability at 18 h, 10 µM [2, 8] [%] | viability at 18 h, 10 µM [2, 9] [%] | CC50 at 18 h [2] [µM] | Effect on p-p38 MAPK levels (phosphorylated-p38 MAPK) | IC50 [3] [µM] | IC50 (IL-6) [µM] | Inhibition of SEAP release (NF-κB activity inhibition) [4] | IC50 (TNF-α) [µM] | IL-6 SI (selectivity index, CC50/IC50) (IL-6) |
| --- | --- | --- | --- | --- | --- | --- | --- | --- | --- | --- | --- | --- | --- | --- | --- | --- |
| CC(=O)O[C@H]1[C@@H](OC(C)=O)[C@]2(C)[C@H](CC[C@@]3(C)[C@H](c4ccoc4)C[C@H]4O[C@@]423)[C@@]2(C)C=CC(=O)C(C)(C)[C@H]12 [Compound 4, 6α-(acetoxy)-14β,15β-epoxyazadirone] | > 99.9 | > 99.9 | 5.6 | 6.78 | 85 ± 5.66 | 85.9 ± 5.34 | 82.4 ± 1.15 | > 99.9 | > 99.9 | 38 | significantly suppressed | < 20 | 1.64 |  |  |  |
| CC(=O)O[C@@H]1C[C@]2(C)C(=CC[C@H]2c2ccoc2)[C@@]2(C)[C@H]1[C@@]1(C)C=CC(=O)C(C)(C)[C@@H]1C[C@H]2OC(C)=O [Compound 11, 11α-acetoxyazadirone] | 9.84 ± 7.34 | 52.6 ± 4.74 |  |  | 90.1 ± 7.88 | 79 ± 1.58 | 78.9 ± 2.21 | > 99.9 | > 99.9 |  |  |  |  | significantly inhibited SEAP release |  |  |
| C[C@]12C3=CC[C@@H](c4ccoc4)[C@]3(C)CC[C@@H]1[C@@]1(C)C(=O)C=C[C@@]3(C)CO[C@@H]([C@H]2O)[C@H]13 [Compound 12, ceramicine B] | > 99.9 | > 99.9 |  | 2.66 | > 99.9 | > 99.9 | 89.4 ± 6.9 | 96.7 ± 4.3 | > 99.9 | 36.9 | significantly suppressed |  |  |  | 13.9 |  |
| CC(=O)O[C@@H]1C[C@H]2C(C)(C)C(=O)C=C[C@]2(C)[C@H]2CC[C@@]3(C)[C@H](c4ccoc4)C[C@H]4O[C@]43[C@@]21C [Compound 13, trichilenone acetate] | > 99.9 | 92.4 ± 10.6 |  |  | > 99.9 | > 99.9 | 91.9 ± 4.37 | > 99.9 | 90.8 ± 3.23 |  |  |  |  | significantly inhibited SEAP release |  |  |
| CC(=O)O[C@@H]1C[C@H]2C(C)(C)C(=O)C=C[C@]2(C)[C@H]2CC[C@]3(C)C(=CC[C@H]3C3CCOC3=O)[C@@]21C (stereo partly drawn) [Compound 15, pentandricine B] | 84.4 ± 18.7 | > 99.9 | 16.4 | 5.88 | 92.8 ± 1.79 | 91.9 ± 3.59 | 90.9 ± 4.95 | > 99.9 | > 99.9 | 96.6 | significantly suppressed | < 20 | 7.37 |  |  | 13.11 |
| CC1(C)C(=O)C=C[C@]2(C)[C@H]3CC[C@]4(C)C(=CC[C@H]4C4CCOC4=O)[C@]3(C)[C@H](O)C[C@@H]12 (stereo partly drawn) [Compound 16, pentandricine C] | > 99.9 | > 99.9 |  |  | 91.8 ± 3.18 | 81.3 ± 7.05 | 89.4 ± 7.08 | > 99.9 | 90.4 ± 7.6 | 110 | significantly suppressed | < 20 | 5.69 |  |  | 19.40 |
